For the experiment, the target named is T1, Polyphenol oxidase 1 (Agaricus bisporus, UniProt Q00024).
T1 sequence (Q00024 whole entry): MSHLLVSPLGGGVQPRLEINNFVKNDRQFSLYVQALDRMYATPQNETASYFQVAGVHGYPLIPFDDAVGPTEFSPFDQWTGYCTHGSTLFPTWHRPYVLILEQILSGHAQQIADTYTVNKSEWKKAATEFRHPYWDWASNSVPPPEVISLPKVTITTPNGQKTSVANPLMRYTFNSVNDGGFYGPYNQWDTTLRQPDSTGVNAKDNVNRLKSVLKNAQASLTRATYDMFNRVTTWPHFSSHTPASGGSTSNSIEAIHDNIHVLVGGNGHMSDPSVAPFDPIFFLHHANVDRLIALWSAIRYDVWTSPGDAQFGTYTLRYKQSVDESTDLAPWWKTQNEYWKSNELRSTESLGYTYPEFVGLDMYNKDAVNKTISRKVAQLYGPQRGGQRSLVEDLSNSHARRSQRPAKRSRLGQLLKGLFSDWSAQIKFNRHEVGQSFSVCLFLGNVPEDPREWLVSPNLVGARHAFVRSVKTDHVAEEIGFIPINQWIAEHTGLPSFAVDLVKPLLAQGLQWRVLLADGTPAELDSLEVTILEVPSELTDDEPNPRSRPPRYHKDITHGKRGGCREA
Briefly: Using this method, the conversion of L-Dopa, a substrate of tyrosinase, into dopachrome is followed by monitoring absorption at 450 nm. Tyrosinase was prepared in 50 mM potassium phosphate buffer, pH 6.8 (assay buffer) at 2000 U/ml and stored at −20° C. in 1 ml aliquots prior to use. For use in assays, stock enzyme solutions were thawed and diluted to 200 U/ml with assay buffer. A 2 mM working solution of substrate, L-DOPA, was prepared in assay buffer for each assay. Samples were dissolved in 10% DMSO (0.5 ml) and diluted to 5 ml with assay buffer. The reaction mixture consisted of 0.050 ml 2 mM L-DOPA, 0.050 ml 200 U/ml mushroom tyrosinase and 0.050 ml inhibitor. Reaction volume was adjusted to 200 μl with assay buffer. […] Average velocity was determined from linear enzyme rate as measured by change in absorbance (ΔA450) at 450 nm per minute.
Turning to `Nc1ccc(CCC(O)c2c(O)cc(O)cc2O)cc1` (stereo unspecified), the half-maximal inhibitory concentration (IC50) (commonly the concentration that gives 50% inhibition) was 8 µM.

With `Oc1ccc(CCC(O)c2ccc(O)cc2)cc1` (stereo unspecified), the IC50 worked out at 305 µM.

`Oc1ccc(C(O)Cc2ccc(Cl)cc2Cl)c(O)c1` (stereo unspecified): the IC50 turned out to be 1000 µM.

Regarding `Oc1ccc(C(O)CCc2ccccc2O)c(O)c1` (stereo unspecified), the IC50 came out at 0.7 µM.

Turning to `COc1ccc(CC(O)c2ccc(O)cc2O)cc1` (stereo unspecified), the 50% inhibitory concentration (IC50) was found to be 77 µM.

Regarding `COc1ccc(O)c(CCCc2ccc(O)cc2OC)c1`, the half-inhibitory concentration (IC50) was determined as 24 µM.

Consider `CC(Cc1ccc(O)c(O)c1)C(C)Cc1ccc(O)c(O)c1` (stereo unspecified) [NORDIHYDROGUAIARETIC ACID], for which the half-maximal inhibitory concentration (IC50) was found to be 700 µM.

Turning to `COc1ccc(CCC(O)c2c(O)cc(O)cc2O)cc1O` (stereo unspecified), the IC50 amounted to 1200 µM.

With `COc1cc(O)c(C(O)CCc2ccc(O)c(OC)c2)c(OC)c1` (stereo unspecified), the half-maximal inhibitory concentration (IC50) is 375 µM.

Turning to `COc1ccc(CCCc2ccc(O)cc2O)c(OC)c1C`, the concentration for half-maximal inhibition (IC50) stood at 0.24 µM.

With `COc1ccc(CCC(O)c2cc(OC)ccc2O)c(OC)c1` (stereo unspecified), the half-inhibitory concentration (IC50) stood at 1000 µM.

(Values after ChEMBL document CHEMBL5728127, “Diarylalkanes as potent inhibitors of binuclear enzymes” (2020).)
